Laboratory results taken from the NIST ThermoML archive (doi:10.1016/j.fluid.2018.10.006).
“And” between values parts separate entries of the source, which are not always exact repeats. Equal entries are not always repeated.

Details: Fluid (supercritical or subcritical phases), Coaxial cylinder method

CCCCCC [hexane]
thermal conductivity
Details | 511.79 K | 513.09 K
2634 kPa | – | 0.0455 W/m/K
2645 kPa | – | 0.04562 W/m/K
2653 kPa | – | 0.04575 W/m/K
2654 kPa | – | 0.04575 W/m/K
2655 kPa | – | 0.04575 W/m/K
2661 kPa | – | 0.04587 W/m/K
2722 kPa | – | 0.04549 W/m/K
2740 kPa | – | 0.04678 W/m/K
2760 kPa | – | 0.04705 W/m/K
2763 kPa | – | 0.04704 W/m/K
2839 kPa | – | 0.04831 W/m/K
2849 kPa | – | 0.04859 W/m/K
2879 kPa | – | 0.04916 W/m/K
2894 kPa | – | 0.04931 W/m/K
2909 kPa | – | 0.0496 W/m/K
2931 kPa | – | 0.05008 W/m/K
2953 kPa | – | 0.05053 W/m/K
2983 kPa | – | 0.05146 W/m/K
3010 kPa | – | 0.05237 W/m/K
3034 kPa | – | 0.05319 W/m/K
3054 kPa | – | 0.05386 W/m/K
3098 kPa | – | 0.05597 W/m/K
3114 kPa | – | 0.05684 W/m/K
3152 kPa | – | 0.05939 W/m/K
3163 kPa | – | 0.06043 W/m/K
3169 kPa | – | 0.06085 W/m/K
3176 kPa | – | 0.06151 W/m/K
3180 kPa | – | 0.06217 W/m/K
3184 kPa | – | 0.06262 W/m/K
3186 kPa | – | 0.06285 W/m/K
3193 kPa | – | 0.06308 W/m/K
3195 kPa | – | 0.06308 W/m/K
3200 kPa | – | 0.06331 W/m/K
3205 kPa | – | 0.06425 W/m/K
3207 kPa | – | 0.06497 W/m/K
3212 kPa | – | 0.06596 W/m/K
3216 kPa | – | 0.06647 W/m/K
3231 kPa | – | 0.06898 W/m/K
3232 kPa | – | 0.06917 W/m/K
3234 kPa | – | 0.06942 W/m/K
3235 kPa | – | 0.06951 W/m/K
3236 kPa | – | 0.06967 W/m/K
3237 kPa | – | 0.06987 W/m/K
3238 kPa | – | 0.07001 W/m/K
3240 kPa | – | 0.07024 W/m/K
3242 kPa | – | 0.07052 W/m/K
3243 kPa | – | 0.07067 W/m/K
3244 kPa | – | 0.07081 W/m/K
3246 kPa | – | 0.0711 W/m/K
3247 kPa | – | 0.07125 W/m/K
3248 kPa | – | 0.07133 W/m/K
3249 kPa | – | 0.07154 W/m/K
3251 kPa | – | 0.07169 W/m/K
3252 kPa | – | 0.07184 W/m/K
3253 kPa | – | 0.07198 W/m/K
3254 kPa | – | 0.07213 W/m/K
3255 kPa | – | 0.07228 W/m/K
3256 kPa | – | 0.07243 W/m/K
3257 kPa | – | 0.07258 W/m/K
3258 kPa | – | 0.07265 W/m/K
3260 kPa | – | 0.07284 W/m/K
3261 kPa | – | 0.07295 W/m/K and 0.073 W/m/K
3262 kPa | – | 0.07311 W/m/K
3263 kPa | – | 0.07319 W/m/K
3265 kPa | – | 0.07338 W/m/K
3266 kPa | – | 0.07346 W/m/K
3267 kPa | – | 0.07354 W/m/K
3274 kPa | – | 0.07412 W/m/K
3277 kPa | – | 0.07428 W/m/K
3279 kPa | – | 0.07428 W/m/K
3280 kPa | – | 0.07438 W/m/K
3282 kPa | – | 0.07445 W/m/K
3284 kPa | – | 0.07451 W/m/K
3287 kPa | – | 0.07452 W/m/K
3288 kPa | – | 0.07459 W/m/K
3290 kPa | – | 0.07463 W/m/K
3292 kPa | – | 0.07463 W/m/K
3295 kPa | – | 0.07469 W/m/K
3298 kPa | – | 0.07463 W/m/K
3303 kPa | – | 0.07463 W/m/K
3306 kPa | – | 0.07437 W/m/K
3310 kPa | – | 0.07332 W/m/K
3312 kPa | – | 0.07332 W/m/K
3313 kPa | – | 0.07228 W/m/K
3318 kPa | – | 0.07228 W/m/K
3319 kPa | – | 0.07228 W/m/K
3322 kPa | – | 0.07228 W/m/K
3326 kPa | – | 0.07228 W/m/K
3330 kPa | – | 0.07228 W/m/K
3331 kPa | – | 0.07228 W/m/K
3332 kPa | – | 0.07228 W/m/K
3334 kPa | – | 0.07228 W/m/K
3336 kPa | – | 0.07228 W/m/K
3340 kPa | – | 0.07228 W/m/K
3343 kPa | – | 0.07197 W/m/K
3345 kPa | – | 0.07087 W/m/K
3346 kPa | – | 0.07087 W/m/K
3347 kPa | – | 0.07087 W/m/K
3350 kPa | – | 0.07087 W/m/K
3360 kPa | – | 0.07087 W/m/K
3370 kPa | – | 0.07087 W/m/K
3380 kPa | – | 0.07087 W/m/K
3390 kPa | – | 0.07087 W/m/K
3400 kPa | – | 0.06942 W/m/K
3420 kPa | – | 0.06942 W/m/K
3430 kPa | – | 0.06942 W/m/K
3450 kPa | – | 0.06824 W/m/K and 0.06843 W/m/K
3500 kPa | – | 0.06824 W/m/K
3600 kPa | – | 0.06824 W/m/K
3700 kPa | – | 0.06824 W/m/K
3800 kPa | – | 0.06824 W/m/K
3900 kPa | – | 0.06824 W/m/K
4000 kPa | – | 0.07056 W/m/K
4100 kPa | – | 0.0708 W/m/K and 0.07056 W/m/K
4180 kPa | 0.07039 W/m/K | –
4190 kPa | 0.07026 W/m/K | –
4200 kPa | 0.07026 W/m/K | 0.07086 W/m/K
4300 kPa | – | 0.07086 W/m/K
4400 kPa | 0.07099 W/m/K | –
4600 kPa | 0.07159 W/m/K | 0.07116 W/m/K
4700 kPa | – | 0.07125 W/m/K
4800 kPa | 0.07179 W/m/K | 0.07144 W/m/K
4900 kPa | – | 0.07165 W/m/K
5000 kPa | – | 0.07187 W/m/K
5100 kPa | – | 0.07209 W/m/K
5200 kPa | – | 0.07225 W/m/K
5300 kPa | – | 0.0725 W/m/K
5400 kPa | 0.07303 W/m/K | 0.07269 W/m/K
5500 kPa | – | 0.07288 W/m/K
5600 kPa | – | 0.07304 W/m/K
5700 kPa | – | 0.07323 W/m/K
5800 kPa | – | 0.07339 W/m/K
5900 kPa | – | 0.07359 W/m/K
6000 kPa | 0.074 W/m/K | 0.07375 W/m/K
6100 kPa | – | 0.07391 W/m/K
6200 kPa | – | 0.07408 W/m/K
6300 kPa | – | 0.07424 W/m/K
6400 kPa | – | 0.07438 W/m/K
6500 kPa | – | 0.07454 W/m/K
6600 kPa | – | 0.07471 W/m/K
6700 kPa | – | 0.07488 W/m/K
6800 kPa | – | 0.07501 W/m/K
6900 kPa | – | 0.07515 W/m/K
7000 kPa | 0.07567 W/m/K | 0.07528 W/m/K
7100 kPa | – | 0.07542 W/m/K
7150 kPa | – | 0.07549 W/m/K
7200 kPa | – | 0.07556 W/m/K
7211 kPa | – | 0.07556 W/m/K
7292 kPa | – | 0.07569 W/m/K
7496 kPa | – | 0.07597 W/m/K
7501 kPa | – | 0.07597 W/m/K
7517 kPa | – | 0.07597 W/m/K
7533 kPa | – | 0.07599 W/m/K
7800 kPa | – | 0.07638 W/m/K
8000 kPa | 0.07705 W/m/K | –
8100 kPa | – | 0.07676 W/m/K
8200 kPa | – | 0.07687 W/m/K
9000 kPa | 0.07812 W/m/K | –
10000 kPa | 0.07922 W/m/K | –
